Five molecules from patent US9669003B2, “Use of flavone and flavanone derivatives in preparation of sedative and hypnotic drugs” (priority 2012, dated 2017) can be followed below.

Structures are written as SMILES. Marks after values point to notes of the source that are not given here.

Common to all, as to type: in vivo
The subject of assay [1] is Kunming mice. The experiment in a line: Influence on hypnosis effect with pentobarbital sodium doses at the threshold (50 mg/kg i.p.). The settings on record: pentobarbital sodium 50 mg/kg i.p. 60 min later, x ± s, n = 10. The essentials:
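Kunming mice (10/group, half each sex) received compound in 0.5% CMC-Na intragastrically at 25, 50 or 100 mg/kg; 60 min later given 0.3% sodium pentobarbital 50 mg/kg i.p. Sleep latency and duration recorded by loss of righting reflex over 1 min; ANOVA and χ2 for sleep incidence.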

Assay [2] has as its system Kunming mice. The assay can be described thus: Influence on autonomic activity of normal mice (ZIL-2 mice autonomic activity meter, counts within 10 min). As to conditions: intragastric, x ± s; for Times of activities in 1 h after drug administration/10 min: 1 h after administration; for Times of activities in 2 h after drug administration/10 min: 2 h after administration; for Times of activities in 24 h after drug administration/10 min: 24 h after administration. The method in brief:
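Kunming mice (10 per group, half each sex) were dosed at 25, 50 or 100 mg/kg in 0.5% CMC-Na. Spontaneous activity counts over 10 min were recorded at 1 h, 2 h and 24 h post-dose. Groups were compared by ANOVA with Dunnett's test after Levene's check.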

Assay [3] relates to Kunming mice. The assay can be described thus: Influence on hypnosis effect with pentobarbital sodium doses below the threshold (25 mg/kg i.p.). As to conditions: pentobarbital sodium 25 mg/kg i.p. 60 min later, sleep observed in 30 min, n = 10. The essentials: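 Kunming mice (10 per group, half female) given single oral doses of 25, 50 or 100 mg/kg in 0.5% CMC-Na; 60 min later pentobarbital sodium 25 mg/kg i.p. Sleep (righting reflex lost >1 min) scored within 30 min as percentage asleep, χ2 test.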

Setting [4] is: 25 mg/kg intragastric single dose.
[5] abbreviates: 50 mg/kg intragastric single dose.
The mark [6] stands for this setting: 100 mg/kg intragastric single dose.
Setting [7] is: test drug 25 mg/kg intragastric single dose.
[8] abbreviates: test drug 50 mg/kg intragastric single dose.
[9] abbreviates: test drug 100 mg/kg intragastric single dose.

For the molecule `COc1ccc(C2CC(=O)c3c(O)c(OC)c(OC)c(OC)c3O2)cc1OC` (stereo not drawn) [Example 64, 5-hydroxyl-6,7,8,3′,4′-penta methoxyl-flavanone], the values for the duration of sleep in the assay with Kunming mice [1] (setting [4]), with Kunming mice [1] (setting [5]) and with Kunming mice [1] (setting [6]) were 24.78 ± 24.51 min, 48.23 ± 24.48 min and 53.43 ± 21.81 min, respectively. Moreover, the time to sleep in the assay on Kunming mice [1] (setting [4]) is given as 5.87 ± 2.32 min; in the assay on Kunming mice [1] (setting [5]) it was 4.32 ± 1.29 min; in the assay with Kunming mice [1] (setting [6]), 3.87 ± 2.43 min. Also, the “Times of activities in 1 h after drug administration/10 min” value (“Times of activities in 1 h” for short) with Kunming mice [2] (25 mg/kg, n = 10, 25 mg/kg) was 323.9 ± 45.4 /10 min; in the assay on Kunming mice [2] (50 mg/kg, n = 10, 50 mg/kg), 283.8 ± 60.4 /10 min; with Kunming mice [2] (100 mg/kg, n = 10, 100 mg/kg), 239.4 ± 35.6 /10 min. The “Times of activities in 2 h after drug administration/10 min” value (“Times of activities in 2 h” for short) is recorded as 310.9 ± 55.9 /10 min with Kunming mice [2] (25 mg/kg, n = 10, 25 mg/kg); 269.7 ± 44.6 /10 min in the assay with Kunming mice [2] (50 mg/kg, n = 10, 50 mg/kg); 248.2 ± 44.7 /10 min in the assay on Kunming mice [2] (100 mg/kg, n = 10, 100 mg/kg). Also, the “Times of activities in 24 h after drug administration/10 min” value (“Times of activities in 24 h” for short) is listed as 331.3 ± 94.5 /10 min in the assay with Kunming mice [2] (25 mg/kg, n = 10, 25 mg/kg); 313.6 ± 93.1 /10 min in the assay with Kunming mice [2] (50 mg/kg, n = 10, 50 mg/kg); 300.1 ± 81.3 /10 min in the assay with Kunming mice [2] (100 mg/kg, n = 10, 100 mg/kg). In addition, the “Number of sleeping animals” value is on record as 4 in the assay with Kunming mice [3] (setting [7]), 7 in the assay with Kunming mice [3] (setting [8]) and 8 with Kunming mice [3] (setting [9]). The “rate of sleeping (%)” value in the assay on Kunming mice [3] (setting [7]) was 40* %; with Kunming mice [3] (setting [8]) it was 70** %; in the assay on Kunming mice [3] (setting [9]), 80*** %.

As to `COc1ccc(C2CC(=O)c3c(cc(OC)c(OC)c3OC)O2)cc1` (stereo not drawn) [Example 65, 5,6,7,4′-tetra methoxyl-flavanone], the duration of sleep in the assay with Kunming mice [1] (setting [4]) was determined as 31.48 ± 22.67 min; in the assay on Kunming mice [1] (setting [5]), 39.63 ± 20.19 min; with Kunming mice [1] (setting [6]) it was 57.62 ± 24.57 min. Moreover, the time to sleep in the assay with Kunming mice [1] (setting [4]) amounted to 5.65 ± 1.83 min; in the assay on Kunming mice [1] (setting [5]), 3.93 ± 1.39 min; in the assay on Kunming mice [1] (setting [6]), 3.92 ± 1.40 min. For the same molecule, the “Times of activities in 1 h” value in the assay on Kunming mice [2] (25 mg/kg, n = 10) is reported as 280.5 ± 47.4 /10 min; in the assay on Kunming mice [2] (50 mg/kg, n = 10) it was 174.3 ± 49.2 /10 min; with Kunming mice [2] (100 mg/kg, n = 10) it was 127.5 ± 36.5 /10 min. The “Times of activities in 2 h” value in the assay with Kunming mice [2] (25 mg/kg, n = 10) is recorded as 279.4 ± 43.5 /10 min; in the assay on Kunming mice [2] (50 mg/kg, n = 10) it was 185.5 ± 56.6 /10 min; with Kunming mice [2] (100 mg/kg, n = 10) it was 132.6 ± 44.6 /10 min. Besides, the “Times of activities in 24 h” value in the assay with Kunming mice [2] (25 mg/kg, n = 10) is given as 291.2 ± 83.6 /10 min; in the assay with Kunming mice [2] (50 mg/kg, n = 10) it was 289.0 ± 89.4 /10 min; with Kunming mice [2] (100 mg/kg, n = 10), 280.7 ± 92.3 /10 min. Also, the “Number of sleeping animals” value in the assay on Kunming mice [3] (setting [7]) is 4; with Kunming mice [3] (setting [8]) it was 6; with Kunming mice [3] (setting [9]), 7. Moreover, the “rate of sleeping (%)” value is recorded as 40* % with Kunming mice [3] (setting [7]), 60** % with Kunming mice [3] (setting [8]) and 70** % with Kunming mice [3] (setting [9]).

With `COc1cc(OC)c2c(c1)OC(c1cc(OC)c(OC)c(OC)c1OC)CC2=O` (stereo not drawn) [Example 66, 5,7,2′,3′,4′,5′-hexa methoxyl-flavanone], the duration of sleep in the assay on Kunming mice [1] (setting [4]) worked out at 23.81 ± 25.29 min; with Kunming mice [1] (setting [5]) it was 27.79 ± 26.78 min; with Kunming mice [1] (setting [6]), 61.44 ± 47.33 min. The time to sleep with Kunming mice [1] (setting [4]) was determined as 5.37 ± 2.12 min; in the assay on Kunming mice [1] (setting [5]), 5.12 ± 2.65 min; with Kunming mice [1] (setting [6]), 3.14 ± 1.10 min. Further, the “Times of activities in 1 h” value in the assay with Kunming mice [2] (25 mg/kg, n = 10) is 307.7 ± 54.6 /10 min; in the assay with Kunming mice [2] (50 mg/kg, n = 10), 275.8 ± 44.3 /10 min; in the assay with Kunming mice [2] (100 mg/kg, n = 10), 258.4 ± 40.3 /10 min. For the same molecule, the “Times of activities in 2 h” value with Kunming mice [2] (25 mg/kg, n = 10) was 281.3 ± 31.2 /10 min; in the assay with Kunming mice [2] (50 mg/kg, n = 10), 270.7 ± 46.3 /10 min; in the assay on Kunming mice [2] (100 mg/kg, n = 10), 243.9 ± 41.2 /10 min. Moreover, the “Times of activities in 24 h” value is given as 314.7 ± 66.7 /10 min in the assay on Kunming mice [2] (25 mg/kg, n = 10); 314.1 ± 81.4 /10 min with Kunming mice [2] (50 mg/kg, n = 10); 334.7 ± 62.9 /10 min in the assay with Kunming mice [2] (100 mg/kg, n = 10). The “Number of sleeping animals” value in the assay with Kunming mice [3] (setting [7]) came to 3; in the assay with Kunming mice [3] (setting [8]) it was 5; in the assay on Kunming mice [3] (setting [9]) it was 8. Further, the figures for the “rate of sleeping (%)” value with Kunming mice [3] (setting [7]), in the assay with Kunming mice [3] (setting [8]) and in the assay on Kunming mice [3] (setting [9]) were 30%, 50** % and 80*** %, respectively.

For `COc1cc2c(c(OC)c1OC)OC(c1cc(OC)c(OC)c(OC)c1OC)CC2=O` (stereo not drawn) [Example 67, 6,7,8,3′,4′,5′,6′-hepta methoxyl-flavanone], the duration of sleep with Kunming mice [1] (setting [4]) is 80.69 ± 20.87 min; in the assay on Kunming mice [1] (setting [5]), 48.12 ± 22.48 min; in the assay on Kunming mice [1] (setting [6]) it was 54.43 ± 19.81 min. The time to sleep in the assay with Kunming mice [1] (setting [4]) came out at 4.34 ± 1.26 min; in the assay with Kunming mice [1] (setting [5]), 4.09 ± 1.45 min; with Kunming mice [1] (setting [6]), 3.87 ± 2.98 min. Moreover, the “Times of activities in 1 h” value in the assay with Kunming mice [2] (25 mg/kg, n = 10) is on record as 287.7 ± 45.4 /10 min; with Kunming mice [2] (50 mg/kg, n = 10), 247.2 ± 44.5 /10 min; in the assay with Kunming mice [2] (100 mg/kg, n = 10) it was 223.4 ± 46.5 /10 min. In addition, the “Times of activities in 2 h” value is reported as 312.5 ± 54.8 /10 min with Kunming mice [2] (25 mg/kg, n = 10); 251.3 ± 38.8 /10 min with Kunming mice [2] (50 mg/kg, n = 10); 243.7 ± 40.6 /10 min in the assay on Kunming mice [2] (100 mg/kg, n = 10). Moreover, the “Times of activities in 24 h” value in the assay on Kunming mice [2] (25 mg/kg, n = 10) was 307.4 ± 77.0 /10 min; in the assay with Kunming mice [2] (50 mg/kg, n = 10), 314.6 ± 94.9 /10 min; with Kunming mice [2] (100 mg/kg, n = 10), 301.9 ± 88.6 /10 min. Moreover, the “Number of sleeping animals” value with Kunming mice [3] (setting [7]) is given as 5; in the assay with Kunming mice [3] (setting [8]), 6; with Kunming mice [3] (setting [9]), 7. Further, the “rate of sleeping (%)” value was 50** % in the assay with Kunming mice [3] (setting [7]), 60** % with Kunming mice [3] (setting [8]) and 70** % with Kunming mice [3] (setting [9]).

Consider `COc1cc(C2Oc3c(OC)c(OC)c(OC)c(O)c3C(=O)C2OC)c(OC)c(OC)c1OC` (stereo not drawn) [Example 68, 5-hydroxyl-3,6,7,8,3′,4′,5′,6′-octa methoxyl-flavanone], for which the duration of sleep in the assay with Kunming mice [1] (setting [4]) was determined as 20.69 ± 25.22 min; in the assay on Kunming mice [1] (setting [5]), 29.78 ± 28.77 min; in the assay with Kunming mice [1] (setting [6]), 64.55 ± 47.91 min. Further, the time to sleep in the assay with Kunming mice [1] (setting [4]) was determined as 5.36 ± 2.23 min; with Kunming mice [1] (setting [5]) it was 5.09 ± 2.44 min; with Kunming mice [1] (setting [6]) it was 3.31 ± 1.14 min. For the same molecule, the “Times of activities in 1 h” value is given as 287.3 ± 47.9 /10 min in the assay with Kunming mice [2] (25 mg/kg, n = 10); 248.2 ± 57.4 /10 min with Kunming mice [2] (50 mg/kg, n = 10); 128.2 ± 30.9 /10 min in the assay on Kunming mice [2] (100 mg/kg, n = 10). In addition, the “Times of activities in 2 h” value with Kunming mice [2] (25 mg/kg, n = 10) is recorded as 267.7 ± 40.4 /10 min; in the assay on Kunming mice [2] (50 mg/kg, n = 10), 243.2 ± 54.6 /10 min; in the assay with Kunming mice [2] (100 mg/kg, n = 10), 241.7 ± 40.9 /10 min. The “Times of activities in 24 h” value with Kunming mice [2] (25 mg/kg, n = 10) is 322.9 ± 76.0 /10 min; in the assay with Kunming mice [2] (50 mg/kg, n = 10), 319.6 ± 75.9 /10 min; with Kunming mice [2] (100 mg/kg, n = 10) it was 298.1 ± 80.2 /10 min. The entries for the “Number of sleeping animals” value with Kunming mice [3] (setting [7]), in the assay with Kunming mice [3] (setting [8]) and with Kunming mice [3] (setting [9]) were 3, 4 and 6, respectively. In addition, the “rate of sleeping (%)” value in the assay with Kunming mice [3] (setting [7]) was 30%; in the assay with Kunming mice [3] (setting [8]) it was 40* %; in the assay on Kunming mice [3] (setting [9]), 60** %.
